Assay results as given in patent US20230416329A1, “A PEPTIDE WITH DISULFIDE BONDS AND INHIBITORY ACTIVITY AGAINST SERINE PROTEASES, DERIVED HYBRID PEPTIDES THEREOF, AND USES THEREOF” (INSTITUTE OF MATERIA MEDICA , CHINESE ACADEMY OF MEDICAL …, priority 2020, published 2023).
Bridge positions count the residues as written; N and C are the ends. Square brackets hold non-standard residues; d marks the D form. Peptide text beside a SMILES is read from it. Hyp = O=C(O)[C@@H]1C[C@@H](O)CN1

Key:
trypsin = target: T1, trypsin (Bos taurus, UniProt P00760); assay: in vitro
T1 sequence (P00760 24-246): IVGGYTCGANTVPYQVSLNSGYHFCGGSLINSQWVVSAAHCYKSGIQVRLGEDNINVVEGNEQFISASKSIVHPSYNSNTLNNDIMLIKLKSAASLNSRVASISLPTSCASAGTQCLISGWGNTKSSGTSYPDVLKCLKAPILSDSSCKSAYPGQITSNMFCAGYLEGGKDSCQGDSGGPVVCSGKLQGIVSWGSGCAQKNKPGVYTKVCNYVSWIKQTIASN
Method: FIG. 17. […] At different time point, 25 μL aliquots was taken out, and 10% (v/v) TFA was added to terminate the reaction.
(§1) Mix by centrifugation at 8000 rpm for 30 seconds.
(§2) Arrange a certain volume of 0.05 μg/μL trypsin solution in another sterile EP. Incubate the EP tubes containing peptides and enzymes at 37° C. for 5 min, and separately add 6 μL of trypsin solution to each EP tube containing peptides and mix well. Start timing and extract 25 μL of reaction solution at 1.5, 3.0, 4.5, 6.0 and 9.0 min later, respectively. Add 3.75 μL of 10% TFA to terminate the reaction and mix well by centrifugation at 8000 rpm for 30 seconds.
as §2, with “and” for “and separately”, “9” for “6”, “6.0, 9.0, 15.0, 30.0,” for “6.0”, “60.0” for “9.0”
(§3) Referring to the experimental method in Example 5, in vitro stability of salmon Calcitonin analogs with oral administration activity to the enzymatic hydrolysis by trypsin, chymotrypsin and elastase were performed.
(§4) Referring to the experimental method in Example 5, in vitro stability of IL-17A inhibitory peptides towards the enzymatic hydrolysis by trypsin, chymotrypsin and elastase were performed.

chymotrypsin = chymotrypsin (Bos taurus, UniProt P00766); assay: in vitro
Method: FIG. 18. […] At different time point, 25 μL aliquots was taken out, and 10% (v/v) TFA was added to terminate the reaction.
as §1
as §2, with “μg/μL chymotrypsin” for “μg/μL trypsin”, “and” for “and separately”, “add 3” for “add 6”
as §2, with “chymotrypsin” for “trypsin”, “then” for “separately”, “4.5” for “6”, “6.0, 9.0, 15.0, 30.0,” for “6.0”, “60.0” for “9.0”
as §3, §4

α-chymotrypsin = α-chymotrypsin (Bos taurus, UniProt P00766); assay: Chymotrypsin inhibitory activity of peptides (AAPFpNA hydrolysis; IC50, Ki, residual activity); type: biochemical; conditions: for Ki: Ki=IC50/(1+S/Km), Km 0.38 mM; for IC50: chymotrypsin 30 nM, AAPFpNA 0.5 mM
Outline: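 Peptide preincubated 10 min at 37 °C with 30 nM α-chymotrypsin in 50 mM Tris-HCl pH 7.8, 20 mM CaCl2; 0.5 mM AAPFpNA then added and A405 read after 90 min. Residual activity versus controls gave IC50; Ki = IC50/(1+S/Km), with Km measured separately.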

[1] = isolated enzyme chymotrypsin, pH 7.8, Remaining peak area (%)/chymotrypsin

Ki (α-chymotrypsin)	IC50 (α-chymotrypsin)	inhibitory activity against chymotrypsin (in words) (α-chymotrypsin)	SMILES	further results
8.59 µM	19.9 µM	–	C[C@@H]1NC(=O)[C@@H](NC(=O)[C@@H](N)Cc2ccccc2)CSSC[C@@H](C(=O)N[C@@H](CCC(N)=O)C(=O)O)NC(=O)[C@H](CCCCN)NC(=O)[C@@H]2CCCN2C(=O)[C@@H]2CCCN2C(=O)[C@H](CC(N)=O)NC(=O)[C@H](CO)NC(=O)[C@H](Cc2ccc(O)cc2)NC1=O [CH44] (H-FCAYSNPPKCQ-OH; disulfide 2-10; N-terminus and C-terminus assumed)	–
–	> 50 µM	–	NC(=O)CC[C@H](NC(=O)[C@@H]1CSSC[C@H](NC(=O)[C@@H](N)Cc2ccccc2)C(=O)N[C@@H](CC(N)=O)C(=O)N[C@@H](Cc2ccc(O)cc2)C(=O)N[C@@H](CO)C(=O)N[C@@H](CC(N)=O)C(=O)N2CCC[C@H]2C(=O)N2CCC[C@H]2C(=O)N[C@@H](CCC(N)=O)C(=O)N1)C(=O)O [CH46] (H-FCNYSNPPQCQ-OH; disulfide 2-10; N-terminus and C-terminus assumed)	–
3.68 µM	8.52 µM	good chymotrypsin inhibitory activity	CC[C@H](C)[C@H](N)C(=O)N[C@H]1CSSC[C@@H](C(=O)N[C@H](C(=O)O)[C@@H](C)CC)NC(=O)[C@H](CCC(N)=O)NC(=O)[C@H](C)NC(=O)[C@@H]2CCCN2C(=O)[C@H]([C@@H](C)CC)NC(=O)[C@H](CO)NC(=O)[C@H](Cc2ccc(O)cc2)NC(=O)[C@H]([C@@H](C)O)NC1=O [CH47] (H-ICTYSIPAQCI-OH; disulfide 2-10; N-terminus and C-terminus assumed)	–
–	> 50 µM	–	CSCC[C@@H]1NC(=O)CNC(=O)[C@@H]2CCCN2C(=O)[C@H](CC(=O)O)NC(=O)[C@H](CO)NC(=O)[C@H](Cc2ccccc2)NC(=O)[C@H]([C@@H](C)O)NC(=O)[C@@H](NC(=O)[C@@H](N)CCSC)CSSC[C@@H](C(=O)N[C@@H](CO)C(=O)O)NC1=O [CH50] (H-MCTFSDPGMCS-OH; disulfide 2-10; N-terminus and C-terminus assumed)	–
–	–	good chymotrypsin inhibitory activity	CC[C@H](C)[C@@H]1NC(=O)[C@H](CO)NC(=O)[C@H](Cc2ccc(O)cc2)NC(=O)[C@H]([C@@H](C)O)NC(=O)[C@@H](NC(=O)[C@@H]2CCCN2)CSSC[C@@H](C(=O)N[C@@H](Cc2ccc(O)cc2)C(=O)O)NC(=O)[C@H](CCC(N)=O)NC(=O)[C@@H]2CCCN2C(=O)[C@@H]2CCCN2C1=O [CH51] (H-PCTYSIPPQCY-OH; disulfide 2-10; N-terminus and C-terminus assumed)	–
0.11 µM	0.25 µM	good chymotrypsin inhibitory activity	CC[C@H](C)[C@@H]1NC(=O)[C@H](CO)NC(=O)[C@H](Cc2ccc(O)cc2)NC(=O)[C@H]([C@@H](C)O)NC(=O)[C@@H](NC(=O)[C@@H](N)Cc2ccccc2)CSSC[C@@H](C(=O)N[C@@H](Cc2ccc(O)cc2)C(=O)NCC(=O)O)NC(=O)[C@H](CCC(N)=O)NC(=O)[C@@H]2CCCN2C(=O)[C@@H]2C[C@@H](O)CN2C1=O [CH53, FCTYSIHypPQCYG] (H-FCTYSI[Hyp]PQCYG-OH; disulfide 2-10; C-terminus assumed)	–

Further lines, the compound ahead of its results:

SMILES	Ki (α-chymotrypsin)	IC50 (α-chymotrypsin)	inhibitory activity against chymotrypsin (in words) (α-chymotrypsin)	further results
CC[C@H](C)[C@H](N)C(=O)N[C@@H](Cc1c[nH]cn1)C(=O)N[C@H](C(=O)N[C@H](C(=O)N[C@H](C(=O)N1CCC[C@H]1C(=O)N[C@@H](C)C(=O)N[C@@H](CC(=O)O)C(=O)N[C@@H](CC(C)C)C(=O)N[C@@H](Cc1c[nH]c2ccccc12)C(=O)N[C@@H](CC(=O)O)C(=O)N[C@@H](Cc1c[nH]c2ccccc12)C(=O)N[C@H](C(=O)N[C@@H](CC(N)=O)C(=O)NCC(=O)N[C@H]1CSSC[C@@H](C(=O)N[C@@H](Cc2ccccc2)C(=O)O)NC(=O)[C@H]([C@@H](C)CC)NC(=O)[C@@H]2CCCN2C(=O)[C@@H]2CCCN2C(=O)[C@H]([C@@H](C)CC)NC(=O)[C@H](CO)NC(=O)[C@H](CCCCN)NC(=O)[C@H]([C@@H](C)O)NC(=O)[C@H](C)NC(=O)[C@H](CCCNC(=N)N)NC(=O)CNC1=O)[C@@H](C)CC)[C@@H](C)CC)[C@@H](C)O)C(C)C [17A-BT] (H-IHVTIPADLWDWINGCGRATKSIPPICF-OH; disulfide 16-27)	–	–	–	stability towards trypsin hydrolysis (in words) (trypsin): tolerated to the degradation of corresponding serine proteases; Remaining peak area (%)/chymotrypsin (chymotrypsin; 0 h): 100.0 ± 0.0%; remaining at 0.025 h, 60 μM (chymotrypsin; [1]): 69.6 ± 3%; remaining at 0.05 h, 60 μM (chymotrypsin; [1]): 68.9 ± 4.8%; remaining at 0.075 h, 60 μM (chymotrypsin; [1]): 48.1 ± 4.3%; remaining at 0.1 h, 60 μM (chymotrypsin; [1]): 45.2 ± 1.3%; remaining at 0.15 h, 60 μM (chymotrypsin; [1]): 42.9 ± 3%; remaining at 0.25 h, 60 μM (chymotrypsin; [1]): 37 ± 1.7%; remaining at 0.5 h, 60 μM (chymotrypsin; [1]): 26.4 ± 0.4%; remaining at 1 h, 60 μM (chymotrypsin; [1]): 9.6 ± 0.8%
C[C@@H]1NC(=O)[C@@H](NC(=O)[C@@H](N)Cc2ccccc2)CSSC[C@@H](C(=O)N[C@@H](CCC(N)=O)C(=O)O)NC(=O)[C@H](CCC(N)=O)NC(=O)[C@@H]2CCCN2C(=O)[C@@H]2CCCN2C(=O)[C@H](CC(N)=O)NC(=O)[C@H](CO)NC(=O)[C@H](Cc2ccc(O)cc2)NC1=O [CH43] (H-FCAYSNPPQCQ-OH; disulfide 2-10; N-terminus and C-terminus assumed)	3.97 µM	9.2 µM	–	–
C[C@@H]1NC(=O)[C@@H](NC(=O)[C@@H](N)Cc2ccccc2)CSSC[C@@H](C(=O)N[C@@H](CCC(N)=O)C(=O)O)NC(=O)[C@H](CCCCN)NC(=O)[C@@H]2CCCN2C(=O)[C@@H]2CCCN2C(=O)[C@H](Cc2ccc(O)cc2)NC(=O)[C@H](CO)NC(=O)[C@H](Cc2ccc(O)cc2)NC1=O [CH45] (H-FCAYSYPPKCQ-OH; disulfide 2-10; N-terminus and C-terminus assumed)	8.29 µM	19.2 µM	–	–
CSCC[C@@H]1NC(=O)[C@H](C)NC(=O)[C@@H]2CCCN2C(=O)[C@H](CC(N)=O)NC(=O)[C@H](CO)NC(=O)[C@H](Cc2ccccc2)NC(=O)[C@H]([C@@H](C)O)NC(=O)[C@@H](NC(=O)[C@@H](N)C(C)C)CSSC[C@@H](C(=O)N[C@@H](Cc2c[nH]cn2)C(=O)O)NC1=O [CH48] (H-VCTFSNPAMCH-OH; disulfide 2-10)	–	> 50 µM	–	–
CSCC[C@H](N)C(=O)N[C@H]1CSSC[C@@H](C(=O)N[C@H](C(=O)O)C(C)C)NC(=O)[C@H](CCCCN)NC(=O)[C@H](C)NC(=O)[C@@H]2CCCN2C(=O)[C@H](Cc2c[nH]cn2)NC(=O)[C@H](CO)NC(=O)[C@H](Cc2ccccc2)NC(=O)[C@H]([C@@H](C)O)NC1=O [CH49] (H-MCTFSHPAKCV-OH; disulfide 2-10; N-terminus and C-terminus assumed)	9.81 µM	22.7 µM	good chymotrypsin inhibitory activity	–
CC[C@H](C)[C@@H]1NC(=O)[C@H](CO)NC(=O)[C@H](Cc2ccc(O)cc2)NC(=O)[C@H]([C@@H](C)O)NC(=O)[C@@H](NC(=O)[C@@H](N)Cc2ccccc2)CSSC[C@@H](C(=O)N[C@@H](Cc2ccc(O)cc2)C(=O)NCC(=O)O)NC(=O)[C@H](CCC(N)=O)NC(=O)[C@@H]2C[C@@H](O)CN2C(=O)[C@@H]2CCCN2C1=O [CH52] (H-FCTYSIP[Hyp]QCYG-OH; disulfide 2-10)	0.36 µM	0.84 µM	–	–
